In this experiment the test system is GDI-KD-9, the Mtb H37Ra-derived glnA1 knockdown mutant. It is filed as cell-based, Mycobacterium tuberculosis.

On to `COc1ccc2cc(-c3nc(C(C)(C)C)[nH]c3-c3ccnc(N)c3)ccc2c1` [11a], for which the “GIC shift (times more sensitive)” value turned out to be 3.6 times, the “GIC shift caused by the reduction of glnA1 expression” value (“GIC shift caused by the reduction” below) is 3- to 4 fold and the “level at which growth inhibition saturates” value was 20 % full scale.
Consider `C[C@]1(O)C[C@@H](c2nc(-c3ccc4ccc(-c5ccccc5)nc4c3)c3c(N)nccn32)C1` [LIN, linsitinib], for which the “level at which growth inhibition saturates” value is on record as 20 % full scale.
As to `CS(=N)(=O)CCC(N)C(=O)O` [MSO, L-methionine S-sulfoximine], the “GIC shift caused by the reduction” value was found to be 16 fold and the “growth inhibition at high concentrations” value is “inhibits the growth completely”.
As for `CO[C@H]1/C=C/O[C@@]2(C)Oc3c(C)c(O)c4c(O)c(c(/C=N/N5CCN(C)CC5)c(O)c4c3C2=O)NC(=O)/C(C)=C\C=C\[C@H](C)[C@H](O)[C@@H](C)[C@@H](O)[C@@H](C)[C@H](OC(C)=O)[C@@H]1C` [RIF, rifampicin], the “GIC shift (times more sensitive)” value is “did not show any GIC shift” and the “GIC shift caused by the reduction” value is listed as “remained susceptible”.

Values taken from publication PMC11807261 (ACS infectious diseases, 2022).
